US20070099941A1, “N-arylalkyl-thienopyrimidin-4-amines and analogs as activators of caspases and inducers of apoptosis and the use thereof” (Cytovia, Inc., priority 2005, published 2007)

Experiments:
Type in all cases: cell-based
[1] = test system: human B cell lymphoblastoid cell line Ramos; assay: Caspase cascade activation assay in Ramos cells; conditions: 48 h assay, read-out: Caspase Activation Potency EC50 Ramos
[2] = test system: human Burkitt's lymphoma cell line Namalwa; assay: Caspase cascade activation assay in Namalwa cells; conditions: Burkitts lymphoma cell, 48 h assay, read-out: Caspase Activation Potency EC50 Namalwa
[3] = test system: human breast cancer cell line T-47D; assay: Inhibition of cell proliferation (GI50, CellTiter-Glo) in T-47D cells; conditions: T47D cells, 48 h, dose for 50% inhibition of cell proliferation
Protocol: (§1) Human breast cancer cell lines T-47D, MX-1 and MDAMB435, human colon cancer cell line HT29, and human lung cancer cell line H1299 were grown and harvested as in Example 26. An aliquot of […] of cells (4.4×10^4 cells/mL) was added to a well of a 96-well microtiter plate containing 5 μL of a 10% DMSO in RPMI-1640 media solution containing 10 nM to 100 μM of N-(3,4-methylenedioxybenzyl)-6-phenylthieno[3,2-d]pyrimidin-4-amine (1 nM to 10 μM final). An aliquot of 45 μL of cells was added to a well of a 96-well microtiter plate containing 5 μL of a 10% DMSO in RPMI-1640 media solution without compound as the control sample for maximal cell proliferation (LMax). The samples were mixed by agitation and then incubated at 37° C. for 48 h in a 5% CO2-95% humidity incubator. After incubation, the samples were removed from the incubator and 25 μL of CellTiter-Glo™ reagent (Promega) was added. The samples were mixed by agitation and incubated at room temperature for 10-15 min. Plates were then read using a luminescent plate reader (Model SPECTRAfluor Plus, Tecan) to give Ltest values.
(§2) Baseline for GI50 (dose for 50% inhibition of cell proliferation) of initial cell numbers was determined by adding an aliquot of 45 μL of cells or 45 μL of media, respectively, to wells of a 96-well microtiter plate containing 5 μL of a 10% DMSO in RPMI-1640 media solution. The samples were mixed by agitation and then incubated at 37° C. for 0.5 h in a 5% CO2-95% humidity incubator. After incubation, the samples were removed from the incubator and 25 μL of CellTiter-Glo™ reagent (Promega) was added. The samples were mixed by agitation and incubated at 37° C. for 10-15 min at room temperature in a 5% CO2-95% humidity incubator. Fluorescence was read as above, (Lstart) defining luminescence for initial cell number used as baseline in GI50 determinations.
(§3) GI50 (dose for 50% inhibition of cell proliferation) is the concentration where [(LTest−Lstart)/(LMax−Lstart)]=0.5.

[4] = test system: human lung cancer cell line H1299; assay: Caspase cascade activation assay in H1299 cells; conditions: NCI-H1299, 24 h or 48 h incubation, read-out: Caspase Activation Potency EC50 H1299
Protocol: (§4) Human breast cancer cell lines T-47D and human lung cancer cell line H1299 were grown according to media component mixtures designated by American Type Culture Collection+10% FCS (Invitrogen Corporation), in a 5% CO2-95% humidity incubator at 37° C. T-47D and H1299 cells were maintained at a cell density between 50 and 80% confluency at a cell density of 0.1 to 0.6×10^6 cells/mL. Cells were harvested at 600×g and resuspended at 0.65×10^6 cells/mL into appropriate media+10% FCS. An aliquot of 22.5 μL of cells was added to a well of a 384-well microtiter plate containing 2.5 μL of a 10% DMSO in RPMI-1640 media solution containing 0.16 to 100 μM of N-(3,4-methylenedioxybenzyl)-6-phenylthieno[3,2-d]pyrimidin-4-amine or other test compound (0.016 to 10 μM final). An aliquot of 22.5 μL of cells was added to a well of a 384-well microtiter plate containing 2.5 μL of a 10% DMSO in RPMI-1640 media solution without test compound as the control sample. The samples were mixed by agitation and then incubated at 37° C. for 24 h or 48 h in a 5% CO2-95% humidity incubator. After incubation, the samples were removed from the incubator and 25 μL of a solution containing 14 μM of N-(Ac-DEVD)-N′-ethoxycarbonyl-R110 (SEQ ID No.:1) fluorogenic substrate (Cytovia, Inc.; WO99/18856), 20% sucrose (Sigma), 20 mM DTT (Sigma), 200 mM NaCl (Sigma), 40 mM Na PIPES buffer pH 7.2 (Sigma), and 500 μg/mL lysolecithin (Calbiochem) was added. The samples were mixed by agitation and incubated at room temperature. Using a fluorescent plate reader (Model SPECTRAfluor Plus, Tecan), an initial reading (T=0) was made approximately 1-2 min after addition of the substrate solution, employing excitation at 485 nm and emission at 530 nm, to determine the background fluorescence of the control sample. After the 3 h incubation, the samples were read for fluorescence as above (T=3 h).
(§5) The Relative Florescence Unit values (RFU) were used to calculate the sample readings as follows: RFU(T=3h)−Control RFU(T=0)=Net RFU(T=3h)
(§6) The activity of caspase cascade activation was determined by the ratio of the net RFU value for N-(3,4-methylenedioxybenzyl)-6-phenylthieno[3,2-d]pyrimidin-4-amine (Example A) or other test compound to that of control samples. The EC50 (nM) was determined by a sigmoidal dose-response calculation (Prism 3.0, GraphPad Software Inc.).

[5] = test system: human breast cancer cell line MX-1; assay: Inhibition of cell proliferation (GI50, CellTiter-Glo) in MX-1 cells; conditions: MX1 cells, 48 h, dose for 50% inhibition of cell proliferation
Protocol: as §1, §2, §3

[6] = test system: human lung cancer cell line H1299; assay: Inhibition of cell proliferation (GI50, CellTiter-Glo) in H1299 cells; conditions: NCI-H1299, 48 h, dose for 50% inhibition of cell proliferation
Protocol: as §1, §2, §3

[7] = test system: human breast cancer cell line MDAMB435; assay: Inhibition of cell proliferation (GI50, CellTiter-Glo) in MDAMB435 cells; conditions: MDA-MB-435, 48 h, dose for 50% inhibition of cell proliferation
Protocol: as §1, §2, §3

[8] = test system: human colon carcinoma cell line HCT116; assay: Caspase cascade activation assay in HCT116 cells; conditions: HCT-116, 48 h assay, read-out: Caspase Activation Potency EC50 HCT116
[9] = test system: human hepatocellular carcinoma cell line SNU398; assay: Caspase cascade activation assay in SNU398 cells; conditions: SNU-398, 48 h assay, read-out: Caspase Activation Potency EC50 SNU398
[10] = test system: human colon cancer cell line HT29; assay: Inhibition of cell proliferation (GI50, CellTiter-Glo) in HT29 cells; conditions: HT-29, 48 h, dose for 50% inhibition of cell proliferation
Protocol: as §1, §2, §3

[11] = test system: human lymphoma cell line Raji; assay: Caspase cascade activation assay in Raji cells; conditions: 48 h assay, read-out: Caspase Activation Potency EC50 Raji
[12] = test system: human breast cancer cell line T-47D; assay: Caspase cascade activation assay in T-47D cells; conditions: T47D, 24 h or 48 h incubation, read-out: Caspase Activation Potency EC50 T-47D
Protocol: as §4, §5, §6

| EC50 [1] [µM] | EC50 [2] [µM] | GI50 [3] [µM] | EC50 [4] [µM] | GI50 [5] [µM] | GI50 [6] [µM] | GI50 [7] [µM] | EC50 [8] [µM] | EC50 [9] [µM] | GI50 [10] [µM] | EC50 [11] [µM] | EC50 [12] [µM] | SMILES |
| --- | --- | --- | --- | --- | --- | --- | --- | --- | --- | --- | --- | --- |
| 0.624 | 0.633 | 0.6 | 0.506 | 0.6 | 0.6 | 0.129 | 0.737 | 0.738 | 0.6 | 1.13 | 0.903 | c1ccc(-c2cc3ncnc(NCc4ccc5c(c4)OCO5)c3s2)cc1 [Example A, N-(3,4-methylenedioxybenzyl)-6-phenylthieno[3,2-d]pyrimidin-4-amine] |
| 1.83 | 1.35 | 1.29 | 1.6 | 0.173 | 1.81 | 0.155 | 2.53 | 1.45 | 5.24 | 2.76 | 0.563 | c1cncc(-c2cc3ncnc(NCc4ccc5c(c4)OCO5)c3s2)c1 [Example 5, N-(3,4-Methylenedioxybenzyl)-6-(pyridin-3-yl)thieno[3,2-d]pyrimidin-4-amine] |
|  |  | 2.07 | 5.09 | 2.5 | 1.04 | 0.997 |  |  | 2.5 |  | 1.56 | Ic1cc2ncnc(NCc3ccc4c(c3)OCO4)c2s1 [Example 3, N-(3,4-Methylenedioxybenzyl)-6-iodo-thieno[3,2-d]pyrimidin-4-amine] |
